Results published in the supplement of paper PMC10307832.

What was measured:
Experiment in all cases: relative viability (nuclei count vs DMSO), 5 days (fraction); higher = more cells survive
Pictilisib + Lapatinib = compound: CS(=O)(=O)N1CCN(Cc2cc3nc(-c4cccc5[nH]ncc45)nc(N4CCOCC4)c3s2)CC1 [Pictilisib] + CS(=O)(=O)CCNCc1ccc(-c2ccc3ncnc(Nc4ccc(OCc5cccc(F)c5)c(Cl)c4)c3c2)o1 [Lapatinib] (partner 2 µM)
Summary of the method: (§1)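 Nuclei were stained with Hoechst during a one-step fixation (final 0.05% Triton X-100, 1% formaldehyde, 1 ug/ml Hoechst) carried out 5 days after dosing, then counted on 4× images. The cells, lung cancer lines in 1536-well plates, had been dosed by pin tool the day after seeding with one drug alone or a fixed anchor-drug dose plus five library-drug doses (not always all listed) in √10 steps. Relative viability is the nuclei count in treated wells divided by that in vehicle wells, and each value is the median of duplicate plates.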

Pictilisib + Linsitinib = compound: CS(=O)(=O)N1CCN(Cc2cc3nc(-c4cccc5[nH]ncc45)nc(N4CCOCC4)c3s2)CC1 [Pictilisib] + C[C@]1(O)C[C@@H](c2nc(-c3ccc4ccc(-c5ccccc5)nc4c3)c3c(N)nccn32)C1 [Linsitinib] (partner 1 µM)
Summary of the method: as §1

Pictilisib + Tozasertib = compound: CS(=O)(=O)N1CCN(Cc2cc3nc(-c4cccc5[nH]ncc45)nc(N4CCOCC4)c3s2)CC1 [Pictilisib] + Cc1cc(Nc2cc(N3CCN(C)CC3)nc(Sc3ccc(NC(=O)C4CC4)cc3)n2)n[nH]1 [Tozasertib] (partner 0.1 µM)
Summary of the method: as §1

Pictilisib + Alpelisib = compound: CS(=O)(=O)N1CCN(Cc2cc3nc(-c4cccc5[nH]ncc45)nc(N4CCOCC4)c3s2)CC1 [Pictilisib] + Cc1nc(NC(=O)N2CCC[C@H]2C(N)=O)sc1-c1ccnc(C(C)(C)C(F)(F)F)c1 [Alpelisib] (partner 2 µM)
Summary of the method: as §1

Pictilisib + Dasatinib = compound: CS(=O)(=O)N1CCN(Cc2cc3nc(-c4cccc5[nH]ncc45)nc(N4CCOCC4)c3s2)CC1 [Pictilisib] + Cc1nc(Nc2ncc(C(=O)Nc3c(C)cccc3Cl)s2)cc(N2CCN(CCO)CC2)n1 [Dasatinib] (partner 0.075 µM)
Summary of the method: as §1

Row | Cell Line | relative viability (Pictilisib + Lapatinib; first compound 0.02 µM) | relative viability (Pictilisib + Lapatinib; first compound 0.06325 µM) | relative viability (Pictilisib + Lapatinib; first compound 0.6325 µM) | relative viability (Pictilisib + Lapatinib; first compound 2 µM) | relative viability (Pictilisib + Linsitinib; first compound 0.02 µM) | relative viability (Pictilisib + Linsitinib; first compound 0.06325 µM) | relative viability (Pictilisib + Linsitinib; first compound 0.6325 µM) | relative viability (Pictilisib + Linsitinib; first compound 2 µM) | relative viability (Pictilisib + Tozasertib; first compound 0.02 µM) | relative viability (Pictilisib + Tozasertib; first compound 0.06325 µM) | relative viability (Pictilisib + Tozasertib; first compound 0.6325 µM) | relative viability (Pictilisib + Tozasertib; first compound 2 µM) | relative viability (Pictilisib + Alpelisib; first compound 0.02 µM) | relative viability (Pictilisib + Alpelisib; first compound 0.06325 µM) | relative viability (Pictilisib + Alpelisib; first compound 0.6325 µM) | relative viability (Pictilisib + Alpelisib; first compound 2 µM) | relative viability (Pictilisib + Dasatinib; first compound 0.02 µM) | relative viability (Pictilisib + Dasatinib; first compound 0.06325 µM) | relative viability (Pictilisib + Dasatinib; first compound 0.6325 µM) | relative viability (Pictilisib + Dasatinib; first compound 2 µM)
1 | NCI-H647 | 1.15 | 1.11 | 0.833 | 0.429 | 1.16 | 1.15 | 1.02 | 0.439 | 0.323 | 0.338 | 0.291 | 0.0558 | 1.09 | 1.26 | 0.894 | 0.467 | 0.195 | 0.172 | 0.108 | 0.0934
2 | NCI-H1734 | 1.1 | 1.11 | 0.653 | 0.41 | 0.901 | 0.797 | 0.615 | 0.332 | 0.254 | 0.275 | 0.226 | 0.193 | 0.709 | 0.588 | 0.546 | 0.406 | 0.451 | 0.424 | 0.281 | 0.182
3 | SK-LU-1 | 0.977 | 0.792 | 0.665 | 0.481 | 1.21 | 1.13 | 0.987 | 0.628 | 0.362 | 0.304 | 0.3 | 0.233 | 1.16 | 1.29 | 0.895 | 0.713 | 0.159 | 0.168 | 0.103 | 0.109
4 | NCI-H1395 | 1.18 | 1.1 | 0.884 | 0.563 | 1.15 | 1.11 | 0.836 | 0.597 | 0.715 | 0.722 | 0.773 | 0.473 | 1.11 | 1.03 | 0.855 | 0.531 | 0.406 | 0.392 | 0.296 | 0.265
5 | COR-L23 | 1.2 | 1.08 | 0.993 | 0.77 | 0.914 | 0.886 | 0.878 | 0.387 | 0.245 | 0.185 | 0.139 | 0.136 | 0.821 | 0.804 | 0.8 | 0.572 | 0.445 | 0.481 | 0.384 | 0.295
6 | EMC-BAC-2 | 0.906 | 0.924 | 0.735 | 0.575 | 0.809 | 0.787 | 0.716 | 0.538 | 0.304 | 0.31 | 0.297 | 0.242 | 0.754 | 0.766 | 0.721 | 0.577 | 0.317 | 0.324 | 0.247 | 0.199
7 | NCI-H1355 | 1.01 | 1 | 0.981 | 0.615 | 0.759 | 0.678 | 0.744 | 0.402 | 0.582 | 0.474 | 0.484 | 0.183 | 0.828 | 0.741 | 0.865 | 0.505 | 0.645 | 0.711 | 0.469 | 0.331
8 | NCI-H1944 | 0.969 | 0.753 | 0.597 | 0.402 | 1.09 | 1.38 | 0.786 | 0.643 | 0.254 | 0.234 | 0.195 | 0.148 | 0.817 | 0.776 | 0.732 | 0.472 | 0.231 | 0.186 | 0.164 | 0.173
9 | ABC-1 | 1.08 | 1.27 | 1.04 | 0.631 | 0.863 | 0.783 | 0.651 | 0.635 | 0.187 | 0.135 | 0.158 | 0.168 | 1.1 | 1.04 | 0.995 | 0.809 | 0.664 | 0.55 | 0.522 | 0.473
10 | HOP-62 | 1.15 | 1.44 | 0.931 | 0.742 | 1.03 | 0.868 | 0.759 | 0.779 | 0.319 | 0.415 | 0.369 | 0.304 | 1.09 | 0.854 | 0.788 | 0.935 | 0.627 | 0.573 | 0.43 | 0.26
11 | NCI-H2009 | 1.06 | 0.932 | 0.858 | 0.844 | 1.21 | 1.18 | 1.16 | 0.799 | 0.719 | 0.736 | 0.75 | 0.461 | 1.19 | 1.17 | 1.13 | 1.07 | 0.307 | 0.298 | 0.159 | 0.129
